What is called IC50 is the midpoint of a concentration-inhibition curve. Read a high IC50 as weaker potency.

For this assay, the target named is HSP90 (Homo sapiens, UniProt P07900). Kind of assay: HSP90 inhibition (HSP90 IC50). Type of assay: biochemical.
Take `COc1ccc(CNC(=O)c2ccc(N3[C@@H]4CC[C@H]3C[C@@H](NC(=O)c3cccc(OC)c3C)C4)nc2)cc1OC` [N {[3,4-bis(methyloxy)phenyl]methyl}-6-[3-endo-({[2-methyl-3-(methyloxy)phenyl]carbonyl}amino)-8-azabicyclo[3.2.1]oct-8-yl]pyridine-3-carboxamide]: the IC50 is under 500 nM.

`CCCCNc1cc(C(=O)N[C@H]2C[C@H]3CC[C@@H](C2)N3c2ccc(C(=O)C3CC3)cn2)ccc1C(N)=O` [2-(butylamino)-N4-{8-[5-(cyclopropylcarbonyl)pyridin-2-yl]-8-azabicyclo[3.2.1]oct-3-endo-yl}benzene-1,4-dicarboxamide] had an IC50 of under 500 nM.

In turn, `CC(=O)c1ccc(N2[C@@H]3CC[C@H]2C[C@@H](NC(=O)c2ccc(C(N)=O)c(NCc4ccccc4)c2)C3)nc1` [N4-[8-(5-acetylpyridin-2-yl)-8-azabicyclo[3.2.1]oct-3-endo-yl]-2-[(phenylmethyl)amino]benzene-1,4-dicarboxamide] registered a half-inhibitory concentration (IC50) of 500 to 999 nM.

In turn, `COc1cccc(C(=O)N[C@H]2C[C@H]3CC[C@@H](C2)N3c2ccc(C(=O)NCCCN3CCCC3=O)cn2)c1C` [6-[3-endo-({[2-methyl-3-(methyloxy)phenyl]carbonyl}amino)-8-azabicyclo[3.2.1]oct-8-yl]-N-[3-(2-oxopyrrolidin-1-yl)propyl]pyridine-3-carboxamide] had an IC50 of 500 to 999 nM.

Take `Cc1cc(CO)ccc1C(=O)N[C@H]1C[C@H]2CC[C@@H](C1)N2c1ccc(C(=O)NCc2ccccc2)cn1` [6-[3-endo-({[4-(hydroxymethyl)-2-methylphenyl]carbonyl}amino)-8-azabicyclo[3.2.1]oct-8-yl]-N-(phenylmethyl)pyridine-3-carboxamide]: the IC50 is under 500 nM.

In turn, `CC(=O)c1ccc(N2[C@@H]3CC[C@H]2C[C@@H](NC(=O)c2ccc(C(N)=O)c(NC(C)C)c2)C3)nc1` [N4-[8-(5-acetylpyridin-2-yl)-8-azabicyclo[3.2.1]oct-3-endo-yl]-2-[(1-methylethyl)amino]benzene-1,4-dicarboxamide] yielded an IC50 of under 500 nM.

In turn, `COc1cccc(C(=O)N[C@H]2C[C@H]3CC[C@@H](C2)N3c2ccc(C(=O)NO)cn2)c1C` [N-hydroxy-6-[3-endo-({[2-methyl-3-(methyloxy)phenyl]carbonyl}amino)-8-azabicyclo[3.2.1]oct-8-yl]pyridine-3-carboxamide] showed an IC50 of 2000 to 10000 nM.

The compound `NC(=O)c1ccc(C(=O)N[C@H]2C[C@H]3CC[C@@H](C2)N3c2ccc(C(=O)C3CC3)cn2)cc1NCC(F)(F)C(F)(F)F` [N4-{8-[5-(cyclopropylcarbonyl)pyridln-2-yl]-8-azabicyclo[3.2.1]oct-3-endo-yl}-2-[(2,2,3,3,3-pentafluoropropyl)amino]benzene-1,4-dicarboxamide] showed an IC50 of under 500 nM.

In turn, `CC(C)(C)CNc1cc(C(=O)N[C@H]2C[C@H]3CC[C@@H](C2)N3c2ccc(C(=O)C3CC3)cn2)c(Br)cc1C(N)=O` [2-bromo-N-{8-[5-(cyclopropylcarbonyl)pyridin-2-yl]-8-azabicyclo[3.2.1]oct-3-endo-yl}-5-[(2,2-dimethylpropyl)amino]benzene-1,4-dicarboxamide] came in with a concentration for half-maximal inhibition (IC50) of under 500 nM.

`COc1cccc(C(=O)N[C@H]2C[C@H]3CC[C@@H](C2)N3c2ccc(C(=O)NCc3ccc(N4CCN(C)CC4)c(F)c3)cn2)c1C` [N-{[3-fluoro-4-(4-methylpiperazin-1-yl)phenyl]methyl}-6-[3-endo-({[2-methyl-3-(methyloxy)phenyl]carbonyl}amino)-8-azabicyclo[3.2.1]oct-8-yl]pyridine-3-carboxamide] had a concentration for half-maximal inhibition (IC50) of under 500 nM.

In turn, `CCOc1ccccc1CNC(=O)c1ccc(N2[C@@H]3CC[C@H]2C[C@@H](NC(=O)c2cccc(OC)c2C)C3)nc1` [N-{[2-(ethyloxy)phenyl]methyl}-6-[3-endo-({[2-methyl-3-(methyloxy)phenyl]carbonyl}amino)-8-azabicyclo[3.2.1]oct-8-yl]pyridine-3-carboxamide] came in with a half-inhibitory concentration (IC50) of 500 to 999 nM.

For the compound `COc1cccc(C(=O)N[C@H]2C[C@H]3CC[C@@H](C2)N3c2ccc(C(=O)NCc3ccccc3C)cn2)c1C` [6-[3-endo-({[2-methyl-3-(methyloxy)phenyl]carbonyl}amino)-8-azabicyclo[3.2.1]oct-8-yl]-N-[(2-methylphenyl)methyl]pyridine-3-carboxamide], the IC50 was under 500 nM.

In turn, `COc1cccc(C(=O)N[C@H]2C[C@H]3CC[C@@H](C2)N3c2ccc(C(=O)NCc3ccc4c(c3)OCO4)cn2)c1C` [N-(1,3-benzodioxol-5-ylmethyl)-6-[3-endo-({[2-methyl-3-(methyloxy)phenyl]carbonyl}amino)-8-azabicyclo[3.2.1]oct-8-yl]pyridine-3-carboxamide] gave an IC50 of under 500 nM.

In the case of `NC(=O)c1ccc(C(=O)N[C@H]2C[C@H]3CC[C@@H](C2)N3c2ccc(C(=O)CCN3CCOCC3)cn2)cc1NCC1CC1` [2-[(cyclopropylmethyl)amino]-N4-{8-[5-(3-morpholin-4-ylpropanoyl)pyridin-2-yl]-8-azabicyclo[3.2.1]oct-3-endo-yl}benzene-1,4-dicarboxamide], the IC50 is under 500 nM.

`CC(=O)c1ccc(N2[C@@H]3CC[C@H]2C[C@@H](NC(=O)c2ccc(C(N)=O)c(NCC4CC4)c2)C3)nc1` [N4-[8-(5-acetylpyridin-2-yl)-8-azabicyclo[3.2.1]oct-3-endo-yl]-2-[(cyclopropylmethyl)amino]benzene-1,4-dicarboxamide] had an IC50 of under 500 nM.

`COc1cccc(C(=O)N[C@H]2C[C@H]3CC[C@@H](C2)N3c2ccc(C(=O)NCc3c(F)ccc(F)c3F)cn2)c1C` [6-[3-endo-({[2-methyl-3-(methyloxy)phenyl]carbonyl}amino)-8-azabicyclo[3.2.1]oct-8-yl]-N-[(2,3,6-trifluorophenyl)methyl]pyridine-3-carboxamide] returned a concentration for half-maximal inhibition (IC50) of 500 to 999 nM.

The compound `COc1cccc(C(=O)N[C@H]2C[C@H]3CC[C@@H](C2)N3c2ccc(C(=O)NCCN(C)C)cn2)c1C` [N-[2-(dimethylamino)ethyl]-6-[3-endo-({[2-methyl-3-(methyloxy)phenyl]carbonyl}amino)-8-azabicyclo[3.2.1]oct-8-yl]pyridine-3-carboxamide] registered a 50% inhibitory concentration (IC50) of 1000 to 2000 nM.

Regarding `CCN1CCC[C@@H](NC(=O)c2ccc(N3C4CCC3CC(NC(=O)c3cc(C)c(C(N)=O)cc3C)C4)nc2)C1` (stereo partly drawn) [N-{8-[5-({[(3R)-1-ethylpiperidin-3-yl]amino}carbonyl)pyridin-2-yl]-8-azabicyclo[3.2.1]oct-3-endo-yl}-2,5-dimethylbenzene-1,4-dicarboxamide], the IC50 was under 500 nM.

`Cc1cc(C(N)=O)c(NC(CF)CF)cc1C(=O)N[C@H]1C[C@H]2CC[C@@H](C1)N2c1ccc(C(=O)C2CC2)cn1` [N-{8-[5-(cyclopropylcarbonyl)pyridin-2-yl]-8-azabicyclo[3.2.1]oct-3-endo-yl}-5-{[2-fluoro-1-(fluoromethyl)ethyl]amino}-2-methylbenzene-1,4-dicarboxamide] yielded a concentration for half-maximal inhibition (IC50) of under 500 nM.

`COc1cccc(C(=O)N[C@H]2C[C@H]3CC[C@@H](C2)N3c2ccc(C(=O)NCc3ccc(F)cc3)cn2)c1C` [N-[(4-fluorophenyl)methyl]-6-[3-endo-({[2-methyl-3-(methyloxy)phenyl]carbonyl}amino)-8-azabicyclo[3.2.1]oct-8-yl]pyridine-3-carboxamide] returned a half-inhibitory concentration (IC50) of under 500 nM.

As to `COc1cccc(C(=O)NC2CC3CCC(C2)N3c2ccc(C(=O)N[C@@H](C)C(N)=O)cn2)c1C` (stereo partly drawn) [N-[(1S)-2-amino-1-methyl-2-oxoethyl]-6-[3-endo-({[2-methyl-3-(methyloxy)phenyl]carbonyl}amino)-8-azabicyclo[3.2.1]oct-8-yl]pyridine-3-carboxamide], the IC50 is 500 to 999 nM.

With `CC(Nc1c(C(N)=O)ccc(C(=O)N[C@H]2C[C@H]3CC[C@@H](C2)N3c2ccc(C(=O)C3CC3)cn2)c1Cl)C1CC1` (stereo partly drawn) [2-chloro-N-{8-[5-(cyclopropylcarbonyl)pyridin-2-yl]-8-azabicyclo[3.2.1]oct-3-endo-yl}-3-[(1-cyclopropylethyl)amino]benzene-1,4-dicarboxamide], the half-inhibitory concentration (IC50) is under 500 nM.

In turn, `COc1cccc(C(=O)N[C@H]2C[C@H]3CC[C@@H](C2)N3c2ccc(C(=O)Nc3ccc(N4CCN(C)CC4)cc3)cn2)c1C` [6-[3-endo-({[2-methyl-3-(methyloxy)phenyl]carbonyl}amino)-8-azabicyclo[3.2.1]oct-8-yl]-N-[4-(4-methylpiperazin-1-yl)phenyl]pyridine-3-carboxamide] yielded an IC50 of under 500 nM.

Compound `COc1cc(F)c(CNC(=O)c2ccc(N3[C@@H]4CC[C@H]3C[C@@H](NC(=O)c3cccc(OC)c3C)C4)nc2)c(F)c1` [N-{[2,6-difluoro-4-(methyloxy)phenyl]methyl}-6-[3-endo-({[2-methyl-3-(methyloxy)phenyl]carbonyl}amino)-8-azabicyclo[3.2.1]oct-8-yl]pyridine-3-carboxamide] showed an IC50 of under 500 nM.

Consider `COc1cccc(C(=O)N[C@H]2C[C@H]3CC[C@@H](C2)N3c2ccc(C(=O)NCCc3cccnc3)cn2)c1C` [6-[3-endo-({[2-methyl-3-(methyloxy)phenyl]carbonyl}amino)-8-azabicyclo[3.2.1]oct-8-yl]-N-(2-pyridin-3-ylethyl)pyridine-3-carboxamide], for which the IC50 lay within 1000 to 2000 nM.

With `COCCNC(=O)c1ccc(N2[C@@H]3CC[C@H]2C[C@@H](NC(=O)c2cccc(OC)c2C)C3)nc1` [6-[3-endo-({[2-methyl-3-(methyloxy)phenyl]carbonyl}amino)-8-azabicyclo[3.2.1]oct-8-yl]-N-[2-(methyloxy)ethyl]pyridine-3-carboxamide], the IC50 was in the range of 2000 to 10000 nM.

The compound `NC(=O)c1ccc(C(=O)NC2CC3CCC(C2)N3c2ccc(C(=O)NC3CCCC3)cn2)cc1N[C@H]1CC[C@H](O)CC1` (stereo partly drawn) [N4-(8-{5-((cyclopentylamino)carbonyl]pyridin-2-yl}-8-azabicyclo[3.2.1]oct-3-endo-yl)-2-[(4-trans-hydroxycyclohexyl)amino]benzene-1,4-dicarboxamide] displayed a half-maximal inhibitory concentration (IC50) of under 500 nM.

`COc1cccc(C(=O)N[C@H]2C[C@H]3CC[C@@H](C2)N3c2ccc(C(=O)NCc3cccc(N4CCN(C)CC4)c3)cn2)c1C` [6-[3-endo-({[2-methyl-3-(methyloxy)phenyl]carbony}amino)-8-azabicyclo[3.2.1]oct-8-yl]-N-{[3-(4-methylpiperazin-1-yl)phenyl]methyl}pyridine-3-carboxamide] displayed an IC50 of under 500 nM.

(Values after patent US8012956B2, “Tropane compounds” (Exelixis, Inc., priority 2007, dated 2011).)
